Measurements published in patent US20130267594A1, “PROLYL HYDROXYLASE INHIBITORS AS RADIATION MITIGATORS AND RADIATION PROTECTORS” (priority 2010, published 2013).

How the values were obtained:
[1] = target: T1, KDM4D (Homo sapiens, UniProt Q6B0I6); assay: KDM4D demethylation of H3K9me3 in transfected cells, immunofluorescent staining (FIG. 2); assay type: cell-based
T1 construct: expressed in transfected cells
T1 sequence (Q6B0I6 1-523): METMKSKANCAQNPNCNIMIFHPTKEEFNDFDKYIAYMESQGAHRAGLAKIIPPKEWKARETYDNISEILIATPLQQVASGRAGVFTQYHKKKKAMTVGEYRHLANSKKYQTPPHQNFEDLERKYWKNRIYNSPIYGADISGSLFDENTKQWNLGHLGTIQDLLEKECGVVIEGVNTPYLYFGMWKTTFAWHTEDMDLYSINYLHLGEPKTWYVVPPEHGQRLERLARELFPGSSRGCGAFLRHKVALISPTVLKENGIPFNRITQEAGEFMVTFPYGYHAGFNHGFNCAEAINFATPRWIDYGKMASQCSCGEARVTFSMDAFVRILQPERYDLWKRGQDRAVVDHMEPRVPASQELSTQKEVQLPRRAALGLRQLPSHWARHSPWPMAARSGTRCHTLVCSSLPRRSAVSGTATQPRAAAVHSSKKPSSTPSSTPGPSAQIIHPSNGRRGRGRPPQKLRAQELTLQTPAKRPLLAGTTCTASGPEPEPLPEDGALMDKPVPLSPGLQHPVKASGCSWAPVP
Protocol: HeLa cells were transiently transfected with either vector or KDM4D, followed by incubation with either solvent (PBS, control) or DMOG (100 μM) and then visualized by fluorescent microscopy.
(§1) Immunofluorescence: Cells (on cover slides) were fixed in phosphate-buffered saline (PBS) containing 2% paraformaldehyde. Cells were permeabilized in 0.2% Triton X-100 in PBS for 5mins, and then blocked in fetal bovine serum for 20 min, Primary antibodies were prepared in 10% fetal bovine serum supplemented with 0.2% saponin. After a 1 h incubation with primary antibody, cells were washed three times with 0.2% Tween-20 and incubated for 1 h in secondary antibody (conjugated to either Texas Red or FITC; Santa Cruz Biotechnology, CA). Slides were mounted with Fluoromount-G (Southern Biotech, AL). […]
KDMs utilize an Fe-oxo intermediate to form an unstable hydroxy-methyl intermediate, which spontaneously releases formaldehyde, leading to removal of a single methyl group. […] In FIG. 2B, Murine Embryonic Fibroblasts (MEFs) were transfected with empty vector or KDM4D, which specifically demethylates H3K9me3, and the levels of chromatin associated H3K9me3 measured by immunofluorescent staining using an anti-H3K9me3 antibody. In untreated cells, high levels of H3K9me3 were detected, and transient expression of the H3K9me3 demethylase KDM4D essentially demethylated the entire nuclear H3K9me3 signal. […]

[2] = system: endogenous KDMs; assay: H3K9me3 immunofluorescent staining in vector-transfected HEK293T cells (FIG. 10B); assay type: cell-based; conditions: DMOG 1 mM 24 hrs
[3] = system: MEF cells; assay: Clonogenic cell survival assay after ionizing radiation, MEFs; assay type: cell-based, mouse; set-up: cell survival after exposure to IR (clonogenic): dose or concentration left out as unconfirmed
[4] = system: H3K9me3; assay: H3K9me3 immunofluorescent staining in MEFs (FIG. 10A); assay type: cell-based, mouse; conditions: DMOG 1 mM 24 hr
Protocol: In FIG. 10A MEFs were incubated in either solvent (Control: DMSO) or DMOG (1 mM) for 24 hr. H3K9me3 levels were detected by immunofluorescent staining with antibody to H3K9me3 and co-stained with DAPI to locate nuclear DNA. In FIG. 10B HEK293T cells were transiently transfected with vector or KDM4A and allowed to recover for 30 hrs. Cells were either untreated or incubated with DMOG (1 mM) for 24 hrs. H3K9me3 levels were detected by immunofluorescent staining with antibody to H3K9me3. In FIG. 10C MCF-7 cells were incubated in increasing concentrations of DMOG or CoCl2 (200 μM) for 24 hrs. […] In FIG. 10D MCF-7 cells were incubated in DMOG (1 mM) or CoCl2 (200 μM) for the indicated time. […] In FIG. 10E MCF-7 cells expressing either a non-specific shRNA (shRNA^Con) or shRNA targeting Hif1α (shRNA^Hif1α) were incubated with DMOG or CoCl2 (200 μM) for 24 hrs.
as §1, with “CA).” for “CA). Slides were mounted with Fluoromount-G (Southern Biotech, AL).”

[5] = system: MTA3; assay type: cell-based; conditions: MCF-7 cells; CoCl2 200 μM 8 hr, FIG. 8E; DMOG only stated
[6] = system: CHD4; assay type: cell-based; conditions: MCF7 cells; CoCl2 200 μM time course, FIG. 8F; DMOG only stated
[7] = system: Suv39h1/2−/− cells; assay: Clonogenic cell survival assay after ionizing radiation, Suv39h1/Suv39h2 double knockout MEFs; assay type: cell-based, mouse
[8] = system: CHD4; assay type: cell-based; conditions: MCF-7 cells; CoCl2 200 μM 8 hr, FIG. 8D; DMOG only stated
[9] = system: Suv39h1; assay type: cell-based
[10] = system: Hif1α; assay type: cell-based

COC(=O)CNC(=O)C(=O)OC [DMOG, dimethyloxalylglycine]
ability of KDM4D to demethylate H3K9me3 ([1]; cells expressing KDM4D, DMOG 100 μM, anti-H3K9me3 staining): inhibited the ability of KDM4D to demethylate H3K9me3
level of expression of the KDM4D enzyme ([1]; control experiments to FIG. 2): did not alter the level of expression of the KDM4D enzyme
H3K9me3 methylation in cells expressing vector [2]: increased H3K9me3 methylation
cell survival after exposure to IR (clonogenic) ([3]; MEF cells incubated with DMOG then irradiated, FIG. 3): increased cell survival
radioresistance (clonogenic survival) ([3]; MEFs expressing a non-specific shRNA, DMOG 1 mM, FIG. 11A): increased radioresistance
radiosensitivity (clonogenic survival) ([3]; MEFs, DMOG 1 mM, 1 hr before IR to 24 hr after, FIG. 7C): significant decrease in radiosensitivity
protection when added after irradiation (radiation mitigation, clonogenic survival) ([3]; MEFs, DMOG 48-72 hours post-irradiation, FIG. 5): significant protection
radioresistance (clonogenic survival) ([3]; Suv39h1/h2+/+ cells, FIG. 4B): small, but significant increase in radioresistance
H3K9me3 in cells [4]: rapidly increased H3K9me3
MTA3 mRNA levels [5]: increased
CHD4 protein levels [6]: increased
protective effect (clonogenic survival) in SuvDKO MEFs versus normal MEFs ([7]; MEF-SuvDKO, DMOG 1 mM, FIG. 11C): significantly reduced
radioprotective effect (clonogenic survival) ([7]; Suv39h1/h2−/− cells compared to +/+, FIG. 4B): much larger radioprotective effects
CHD4 mRNA levels [8]: increased
DMOG dependent induction of Suv39h1 in cells lacking Hif1α [9]: abolished
expression of the Suv39h1 methyltransferase [9]: increased expression of the Suv39h1 methyltransferase
accumulation of Hif1α [10]: significant accumulation of Hif1α
accumulation of Hif1α protein in combination with IR, versus agent alone [10]: much larger accumulation of Hif1α protein
